This note sets out measurements from patent publication US9169254B2, “Spiroimidazolone derivative” (Chugai Seiyaku Kabushiki Kaisha, priority 2009, dated 2015).

The first test addresses T1, human PTH1 receptor (Homo sapiens, UniProt Q03431).
T1 sequence (Q03431 27-593): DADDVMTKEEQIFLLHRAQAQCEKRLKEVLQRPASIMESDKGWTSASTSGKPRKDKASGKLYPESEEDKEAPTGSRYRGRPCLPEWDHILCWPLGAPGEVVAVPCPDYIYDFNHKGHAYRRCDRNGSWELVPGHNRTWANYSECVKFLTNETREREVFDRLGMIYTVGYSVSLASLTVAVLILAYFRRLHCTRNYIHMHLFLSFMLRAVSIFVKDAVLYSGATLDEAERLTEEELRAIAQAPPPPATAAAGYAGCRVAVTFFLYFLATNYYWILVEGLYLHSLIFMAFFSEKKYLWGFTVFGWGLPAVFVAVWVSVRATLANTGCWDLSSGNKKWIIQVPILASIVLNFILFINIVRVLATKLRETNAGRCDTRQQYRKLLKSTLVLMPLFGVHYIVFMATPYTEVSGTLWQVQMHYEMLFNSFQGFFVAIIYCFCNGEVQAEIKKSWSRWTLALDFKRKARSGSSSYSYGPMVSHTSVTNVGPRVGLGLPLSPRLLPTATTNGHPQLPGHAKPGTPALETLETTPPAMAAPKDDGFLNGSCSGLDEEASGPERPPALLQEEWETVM
The test is described as follows: In vitro cAMP signal activity in HKRK-B7 cells (LLC-PK1 cells overexpressing the human PTH1 receptor). It counts as cell-based. The note with it: HKRK-B7 cells; compound at 1×10^−3 M; cAMP produced as percentage of that produced by hPTH(1-34) at 100 nM.
As for `CC(C)(C)C1=NC2(CCN(S(=O)(=O)c3cccc(Cl)c3)CC2)C(=O)N1` [Compound 16, 2-tert-butyl-8-(3-chloro-benzenesulfonyl)-1,3,8-triaza-spiro[4.5]dec-1-en-4-one], the “cAMP production activity (%)” value was found to be 41%.

On to `O=C1NC(C2CCC(C(F)(F)F)CC2)=NC12CCN(S(=O)(=O)c1cccc(Cl)c1)CC2` (centres unmarked) [Compound 17, 8-(3-chloro-benzenesulfonyl)-2-(4-trifluoromethyl-cyclohexyl)-1,3,8-triaza-spiro[4.5]dec-1-en-4-one], for which the “cAMP production activity (%)” value is on record as 39%.

Consider `CC(C)(C)OC(=O)N1CCCC(C2=NC3(CCN(S(=O)(=O)c4cccc(Cl)c4)CC3)C(=O)N2)C1` (centres unmarked) [Compound 18, 3-[8-(3-chloro-benzenesulfonyl)-4-oxo-1,3,8-triaza-spiro[4.5]dec-1-en-2-yl]-piperidine-1-carboxylic acid tert-butyl ester], for which the “cAMP production activity (%)” value was determined as 44%.

In the case of `CC1CCCC(C2=NC3(CCN(S(=O)(=O)c4cccc(Cl)c4)CC3)C(=O)N2)C1` (centres unmarked) [Compound 19, 8-(3-chloro-benzenesulfonyl)-2-(3-methyl-cyclohexyl)-1,3,8-triaza-spiro[4.5]dec-1-en-4-one], the “cAMP production activity (%)” value is 35%.

With `CC1CCCCC1C1=NC2(CCN(S(=O)(=O)c3cccc(Cl)c3)CC2)C(=O)N1` (centres unmarked) [Compound 20, 8-(3-chloro-benzenesulfonyl)-2-(2-methyl-cyclohexyl)-1,3,8-triaza-spiro[4.5]dec-1-en-4-one], the “cAMP production activity (%)” value was 38%.

With `CCC[C@H]1CC[C@H](C2=NC3(CCN(S(=O)(=O)c4cccc(Cl)c4)CC3)C(=O)N2)CC1` [Compound 21, 8-(3-chloro-benzenesulfonyl)-2-(4-propyl-cyclohexyl)-1,3,8-triaza-spiro[4.5]dec-1-en-4-one], the “cAMP production activity (%)” value is on record as 42%.

For the compound `O=C1NC([C@H]2C[C@H]3CC[C@@H]2C3)=NC12CCN(S(=O)(=O)c1cccc(Cl)c1)CC2` [Compound 22, 2-(1R,2S,4S)-bicyclo[2.2.1]hept-2-yl-8-(3-chloro-benzenesulfonyl)-1,3,8-triaza-spiro[4.5]dec-1-en-4-one], the “cAMP production activity (%)” value was 43%.

As to `O=C1NC([C@@H]2C[C@H]3CC[C@@H]2C3)=NC12CCN(S(=O)(=O)c1cccc(Cl)c1)CC2` [Compound 23, 2-(1R,2R,4S)-bicyclo[2.2.1]hept-2-yl-8-(3-chloro-benzenesulfonyl)-1,3,8-triaza-spiro[4.5]dec-1-en-4-one], the “cAMP production activity (%)” value is given as 41%.

With `CO[C@H]1CC[C@@H](C2=NC3(CCN(S(=O)(=O)c4cccc(Cl)c4)CC3)C(=O)N2)CC1` [Compound 24, 8-(3-chloro-benzenesulfonyl)-2-(4-methoxy-cyclohexyl)-1,3,8-triaza-spiro[4.5]dec-1-en-4-one], the “cAMP production activity (%)” value was found to be 18%.

`CO[C@H]1CC[C@H](C2=NC3(CCN(S(=O)(=O)c4cccc(Cl)c4)CC3)C(=O)N2)CC1` [Compound 25, 8-(3-chloro-benzenesulfonyl)-2-(4-methoxy-cyclohexyl)-1,3,8-triaza-spiro[4.5]dec-1-en-4-one]: the “cAMP production activity (%)” value amounted to 18%.

As to `CC(C)(C)[C@H]1CC[C@H](C2=NC3(CCN(S(=O)(=O)c4cccc(Cl)c4)CC3)C(=O)N2)CC1` [Compound 26, 2-(4-tert-butyl-cyclohexyl)-8-(3-chloro-benzenesulfonyl)-1,3,8-triaza-spiro[4.5]dec-1-en-4-one], the “cAMP production activity (%)” value was 36%.

On to `O=C1NC(C2CCC(CF)CC2)=NC12CCN(S(=O)(=O)c1cccc(Cl)c1)CC2` (centres unmarked) [Compound 27, 8-(3-chloro-benzenesulfonyl)-2-(4-fluoromethyl-cyclohexyl)-1,3,8-triaza-spiro[4.5]dec-1-en-4-one], for which the “cAMP production activity (%)” value came to 42%.

Consider `O=C1NC(CC2CCCCC2)=NC12CCN(S(=O)(=O)c1cccc(Cl)c1)CC2` [Compound 28, 8-(3-chloro-benzenesulfonyl)-2-cyclohexylmethyl-1,3,8-triaza-spiro[4.5]dec-1-en-4-one], for which the “cAMP production activity (%)” value was 31%.

Regarding `O=C1NC(CCc2ccccc2)=NC12CCN(S(=O)(=O)c1cccc(Cl)c1)CC2` [Compound 29, 8-(3-chloro-benzenesulfonyl)-2-phenethyl-1,3,8-triaza-spiro[4.5]dec-1-en-4-one], the “cAMP production activity (%)” value is on record as 28%.

Regarding `O=C1NC(CCC2CCCCC2)=NC12CCN(S(=O)(=O)c1cccc(Cl)c1)CC2` [Compound 30, 8-(3-chloro-benzenesulfonyl)-2-(2-cyclohexyl-ethyl)-1,3,8-triaza-spiro[4.5]dec-1-en-4-one], the “cAMP production activity (%)” value came out at 26%.

With `O=C1NC(c2cccc(C(F)(F)F)c2)=NC12CCN(S(=O)(=O)c1cccc(Cl)c1)CC2` [Compound 31, 8-(3-chloro-benzenesulfonyl)-2-(3-trifluoromethyl-phenyl)-1,3,8-triaza-spiro[4.5]dec-1-en-4-one], the “cAMP production activity (%)” value is listed as 41%.

For `CS(=O)(=O)c1cccc(C2=NC3(CCN(S(=O)(=O)c4cccc(Cl)c4)CC3)C(=O)N2)c1` [Compound 32, 8-(3-chloro-benzenesulfonyl)-2-(3-methanesulfonyl-phenyl)-1,3,8-triaza-spiro[4.5]dec-1-en-4-one], the “cAMP production activity (%)” value is listed as 26%.

On to `O=C1NC(C2(c3ccccc3)CCCCC2)=NC12CCN(S(=O)(=O)c1cccc(Cl)c1)CC2` [Compound 33, 8-(3-chloro-benzenesulfonyl)-2-(1-phenyl-cyclohexyl)-1,3,8-triaza-spiro[4.5]dec-1-en-4-one], for which the “cAMP production activity (%)” value is 4.4%.

`O=C1NC(CCc2cccc3ccccc23)=NC12CCN(S(=O)(=O)c1cccc(Cl)c1)CC2` [Compound 34, 8-(3-chloro-benzenesulfonyl)-2-(2-naphthalen-1-yl-ethyl)-1,3,8-triaza-spiro[4.5]dec-1-en-4-one]: the “cAMP production activity (%)” value worked out at 16%.

For `O=C1NC(c2cccc(C(F)(F)F)c2)=NC12CCN(S(=O)(=O)CCc1cccc3ccccc13)CC2` [Compound 35, 8-(2-Naphthalen-1-yl-ethanesulfonyl)-2-(3-trifluoromethyl-phenyl)-1,3,8-triaza-spiro[4.5]dec-1-en-4-one], the “cAMP production activity (%)” value is 56%.

On to `CC(C)(C)C1=NC2(CCN(S(=O)(=O)CCc3cccc4ccccc34)CC2)C(=O)N1` [Compound 36, 2-tert-butyl-8-(2-naphthalen-1-yl-ethanesulfonyl)-1,3,8-triaza-spiro[4.5]dec-1-en-4-one], for which the “cAMP production activity (%)” value was found to be 3.5%.

As to `O=C1NC(C2CCC(C(F)(F)F)CC2)=NC12CCN(S(=O)(=O)CCc1cccc3ccccc13)CC2` (centres unmarked) [Compound 37, 8-(2-naphthalen-1-yl-ethanesulfonyl)-2-(4-trifluoromethyl-cyclohexyl)-1,3,8-triaza-spiro[4.5]dec-1-en-4-one], the “cAMP production activity (%)” value was 54%.

Consider `CC(C)(C)OC(=O)N1CCCC(C2=NC3(CCN(S(=O)(=O)CCc4cccc5ccccc45)CC3)C(=O)N2)C1` (centres unmarked) [Compound 38, 3-[8-(2-Naphthalen-1-yl-ethanesulfonyl)-4-oxo-1,3,8-triaza-spiro[4.5]dec-1-en-2-yl]-piperidine-1-carboxylic acid tert-butyl ester], for which the “cAMP production activity (%)” value was 52%.

Consider `O=C1NC(C2CCCN(S(=O)(=O)CCc3cccc4ccccc34)C2)=NC12CCN(S(=O)(=O)CCc1cccc3ccccc13)CC2` (centres unmarked) [Compound 39, 8-(2-Naphthalen-1-yl-ethanesulfonyl)-2-[1-(2-naphthalen-1-yl-ethanesulfonyl)-piperidin-3-yl]-1,3,8-triaza-spiro[4.5]dec-1-en-4-one], for which the “cAMP production activity (%)” value stood at 25%.

As to `CCCS(=O)(=O)N1CCCC(C2=NC3(CCN(S(=O)(=O)c4cccc(Cl)c4)CC3)C(=O)N2)C1` (centres unmarked) [Compound 40, 8-(3-chloro-benzenesulfonyl)-2-[1-(propane-1-sulfonyl)-piperidin-3-yl]-1,3,8-triaza-spiro[4.5]dec-1-en-4-one], the “cAMP production activity (%)” value was found to be 19%.

As for `O=C1NC(C2CCCN(S(=O)(=O)c3ccccc3)C2)=NC12CCN(S(=O)(=O)c1cccc(Cl)c1)CC2` (centres unmarked) [Compound 41, 2-(1-benzenesulfonyl-piperidin-3-yl)-8-(3-chloro-benzenesulfonyl)-1,3,8-triaza-spiro[4.5]dec-1-en-4-one], the “cAMP production activity (%)” value came to 21%.

In the case of `O=C1NC(C2CCCN(S(=O)(=O)Cc3ccccc3)C2)=NC12CCN(S(=O)(=O)c1cccc(Cl)c1)CC2` (centres unmarked) [Compound 42, 8-(3-chloro-benzenesulfonyl)-2-(1-phenylmethanesulfonyl-piperidin-3-yl)-1,3,8-triaza-spiro[4.5]dec-1-en-4-one], the “cAMP production activity (%)” value is on record as 27%.

As to `O=C1NC(C2CCCN(S(=O)(=O)Cc3ccccc3)C2)=NC12CCN(S(=O)(=O)CCc1cccc3ccccc13)CC2` (centres unmarked) [Compound 43, 8-(2-naphthalen-1-yl-ethanesulfonyl)-2-(1-phenylmethanesulfonyl-piperidin-3-yl)-1,3,8-triaza-spiro[4.5]dec-1-en-4-one], the “cAMP production activity (%)” value amounted to 39%.

The same test, now with this note: HKRK-B7 cells; compound at 3×10^−4 M (* Compound 15); cAMP produced as percentage of that produced by hPTH(1-34) at 100 nM.
As for `CC(=O)N1CCC(C2=NC3(CCN(S(=O)(=O)c4cccc(Cl)c4)CC3)C(=O)N2)CC1` [Compound 15, 2-(1-acetyl-piperidin-4-yl)-8-(3-chloro-benzenesulfonyl)-1,3,8-triaza-spiro[4.5]dec-1-en-4-one], the “cAMP production activity (%)” value was 1.8* %.
